Values of other authors as cited in US10517870B2, “Aryl substituted bicycle heteroaryl compounds” (Bristol-Myers Squibb Company, priority 2015, dated 2019).

Legend:
[1] = target: T1, protease-activated receptor type 4 (PAR4) (Homo sapiens, UniProt Q96RI0); conditions: Lee et al., J. Med. Chem. 2001; cited from earlier work
T1 sequence (Q96RI0 18-385): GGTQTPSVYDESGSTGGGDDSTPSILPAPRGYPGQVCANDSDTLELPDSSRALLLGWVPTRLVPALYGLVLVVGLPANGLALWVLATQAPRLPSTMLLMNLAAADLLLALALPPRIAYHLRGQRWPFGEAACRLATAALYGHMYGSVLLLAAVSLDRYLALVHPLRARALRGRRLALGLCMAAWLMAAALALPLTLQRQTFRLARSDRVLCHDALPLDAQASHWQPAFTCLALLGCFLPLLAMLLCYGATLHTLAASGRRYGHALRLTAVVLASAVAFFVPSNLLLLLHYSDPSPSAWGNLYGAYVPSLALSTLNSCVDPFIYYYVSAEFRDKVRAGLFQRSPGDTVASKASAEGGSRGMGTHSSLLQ

[2] = ACS patients, TRACER phase III trial; cited from earlier work

| SMILES | inhibition of PAR4-dependent platelet activation [1] | cardiovascular events [2] | risk of major bleeding [2] |
| --- | --- | --- | --- |
| CCOC(=O)c1ccc(-c2nn(Cc3ccccc3)c3ccccc23)cc1 [YD-3] | selective and potent inhibitor |  |  |
| CCOC(=O)N[C@@H]1CC[C@@H]2[C@@H](C1)C[C@H]1C(=O)O[C@H](C)[C@H]1[C@H]2/C=C/c1ccc(-c2cccc(F)c2)cn1 [vorapaxar] |  | did not significantly reduce cardiovascular events | significantly increased the risk of major bleeding |
